The values that follow come from patent US5196445A, “Heteroaryl-3-oxo-propanenitrile derivatives useful in the treatment of rheumatoid arthritis and other autoimmune diseases” (Farmitalia Carlo Erba Srl, priority 1989, dated 1993).

Molecules are shown by their SMILES. Read-outs that look alike come from different tables or passages of the source. Where only a bound is given, the exact number is not on record here.

Data set [1] relates to adjuvant arthritis in rats. The data set can be described thus: Mycobacterium smegmatis induced adjuvant arthritis in rats (contralateral/left hind paw oedema, systemic phase). To be noted: 10 mg/kg i.p.; for inhibition in vivo at 10 mg/kg: Mycolicibacterium smegmatis, ip, left hind paw oedema; for Oedema volume ± S.E., day 18 / Oedema volume ± S.E., day 21 / Oedema volume ± S.E., day 25: left hind paw, systemic phase. It is filed as in vivo, male Lewis rats. Here is the method: Mycobacterium smegmatis induced adjuvant arthritis in rats Adjuvant arthritis is induced in groups of 10-30 male Lewis rats, weighing 150 g, by injecting 75 μg of M. smegmatis in 50 μl of mineral oil into the plantar surface of the right hind foot pad. The test compounds are administered at 10 mg/kg i.p.), 5 days a week for 4 weeks, starting on the same day of the mycobacterium injection. The volume of the controlateral (systematic phase) hind foot pad is measured pletismographically on days 18, 21 and 25.

Data set [2] in a line: approximate acute toxicity (LD50) in the mouse, per os, single administration of increasing doses. To be noted: in vivo, po, measured on the seventh day after treatment. From the text:
In view of their high biological activity and low toxicity the compounds of the invention can be safely used in medicine. For example, the approximate acute toxicity (LD50) in the mouse of the compounds 2-cyano-3-(1,4-dihydro-1-phenyl-[1]-benzopyrano[4,3-c]pyrazol-3-yl)-3-oxo- N-phenyl-propanamide, and 2-cyano-3-(1,4-dihydro-1-phenyl-[1]-benzothiopyrano[4,3-c]pyrazol-3-yl)-3- oxo-N-phenyl-propanamide, determined per os with single administration of increasing doses and measured on the seventh day after the day of treatment, is higher than 800 mg/kg. Analogous toxocity data have been found for the other compounds of the invention.

Setting [3] is: 432 h, Table 1, day 18, read-out: % inhibition vs. controls, day 18.
Setting [4] is: 504 h, Table 1, day 21, read-out: % inhibition vs. controls, day 21.
[5] abbreviates: 600 h, Table 1, day 25, read-out: % inhibition vs. controls, day 25.
The mark [6] stands for this setting: 432 h, Table 2, day 18, read-out: % inhibition vs. controls, day 18.
Where [7] appears, read: 504 h, Table 2, day 21, read-out: % inhibition vs. controls, day 21.
Setting [8] is: 600 h, Table 2, day 25, read-out: % inhibition vs. controls, day 25.

In general, LD50 refers to the dose at which mortality reaches 50%. With `N#CC(C(=O)Nc1ccccc1)C(=O)c1nn(-c2ccccc2)c2c1CSc1ccccc1-2` (centres unmarked) [FCE 24578, 2-cyano-3-(1,4-dihydro-1-phenyl-[1]-benzothiopyrano[4,3-c]pyrazol-3-yl)-3-oxo-N-phenyl-propanamide], the inhibition in vivo at 10 mg/kg was determined as 75% in data set [1] (setting [3]), 65% in data set [1] (setting [4]) and 68% in data set [1] (setting [5]). Besides, in data set [1] (Table 1, day 18), the “Oedema volume ± S.E., day 18” value stood at 310 ± 180 mm^3. Further, the “Oedema volume ± S.E., day 21” value in data set [1] (Table 1, day 21) was determined as 470 ± 215 mm^3. Besides, the “Oedema volume ± S.E., day 25” value in data set [1] (Table 1, day 25) was 460 ± 241 mm^3. This compound gave an LD50 at 168 h in data set [2] of over 800 mg/kg.

Turning to `N#CC(C(=O)Nc1ccccc1)C(=O)c1nn(-c2ccccc2)c2c1COc1ccccc1-2` (centres unmarked) [FCE 25158, 2-cyano-3-(1,4-dihydro-1-phenyl-[1]-benzopyrano[4,3-c]pyrazol-3-yl)-3-oxo-N-phenyl-propanamide], the inhibition in vivo at 10 mg/kg in data set [1] (setting [6]) is 30%; in data set [1] (setting [7]), 38%; in data set [1] (setting [8]), 41%. The “Oedema volume ± S.E., day 18” value in data set [1] (Table 2, day 18) amounted to 700 ± 198 mm^3. For the same compound, the “Oedema volume ± S.E., day 21” value in data set [1] (Table 2, day 21) stood at 683 ± 174 mm^3. In data set [1] (Table 2, day 25), the “Oedema volume ± S.E., day 25” value came to 717 ± 182 mm^3. Moreover, the LD50 at 168 h in data set [2] is over 800 mg/kg.

`N#CC(C(=O)Nc1ccccc1)C(=O)c1nn(-c2ccccc2)c2c1CCc1ccccc1-2` (centres unmarked) [FCE 25161, 2-cyano-3-(4,5-dihydro-1-phenyl-[1]-benz[g]indazol-3-yl)-3-oxo-N-phenyl-propanamide]: the inhibition in vivo at 10 mg/kg came out at 50% in data set [1] (setting [3]), 49% in data set [1] (setting [4]) and 49% in data set [1] (setting [5]). For the same compound, the “Oedema volume ± S.E., day 18” value in data set [1] (Table 1, day 18) is recorded as 665 ± 91 mm^3. Also, in data set [1] (Table 1, day 21), the “Oedema volume ± S.E., day 21” value is 675 ± 96 mm^3. In addition, the “Oedema volume ± S.E., day 25” value in data set [1] (Table 1, day 25) was found to be 685 ± 93 mm^3.

Consider `N#CC(C(=O)Nc1ccccc1)C(=O)c1nn(-c2ccccc2)c2c1Cc1ccccc1-2` (centres unmarked) [FCE 25276, 2-cyano-3-(1,4-dihydro-1-phenyl-indeno[1,2-c]pyrazol-3-yl)-3-oxo-N-phenyl-propanamide], for which the inhibition in vivo at 10 mg/kg in data set [1] (setting [6]) was found to be 41%; in data set [1] (setting [7]) it was 47%; in data set [1] (setting [8]), 58%. Further, the “Oedema volume ± S.E., day 18” value in data set [1] (Table 2, day 18) came to 587 ± 233 mm^3. For the same compound, the “Oedema volume ± S.E., day 21” value in data set [1] (Table 2, day 21) was 587 ± 254 mm^3. Also, the “Oedema volume ± S.E., day 25” value in data set [1] (Table 2, day 25) stood at 512 ± 304 mm^3.

For the compound `N#CC(C(=O)NCc1ccccc1)C(=O)c1nn(-c2ccccc2)c2c1CSc1ccccc1-2` (centres unmarked) [FCE 25324, N-benzyl-2-cyano-3-(1,4-dihydro-1-phenyl-[1]-benzothiopyrano [4,3-c]pyrazol-3-yl)-3-oxo-propanamide], the inhibition in vivo at 10 mg/kg in data set [1] (setting [3]) was found to be 51%; in data set [1] (setting [4]) it was 57%; in data set [1] (setting [5]) it was 60%. Also, the “Oedema volume ± S.E., day 18” value in data set [1] (Table 1, day 18) is given as 565 ± 72 mm^3. In addition, in data set [1] (Table 1, day 21), the “Oedema volume ± S.E., day 21” value came to 575 ± 97 mm^3. Further, the “Oedema volume ± S.E., day 25” value in data set [1] (Table 1, day 25) was 545 ± 78 mm^3.

For the compound `N#CC(C(=O)Nc1ccc(F)cc1)C(=O)c1nn(-c2ccc(F)cc2)c2c1Cc1ccccc1-2` (centres unmarked) [FCE 26317, 2-cyano-N-(4-fluoro-phenyl)-3-[1-(4-fluoro-phenyl)-1,4-dihydro-indeno[1,2-c]pyrazol-3-yl]-3-oxo-propanamide], the inhibition in vivo at 10 mg/kg in data set [1] (setting [6]) turned out to be 37%; in data set [1] (setting [7]), 38%; in data set [1] (setting [8]), 44%. Besides, the “Oedema volume ± S.E., day 18” value in data set [1] (Table 2, day 18) is given as 629 ± 347 mm^3. The “Oedema volume ± S.E., day 21” value in data set [1] (Table 2, day 21) stood at 686 ± 393 mm^3. Moreover, the “Oedema volume ± S.E., day 25” value in data set [1] (Table 2, day 25) stood at 683 ± 417 mm^3.

Regarding `N#CC(C(=O)Nc1ccccc1)C(=O)c1nn(-c2ccccc2)c2c1Cc1c(CN3CCOCC3)cccc1-2` (centres unmarked) [FCE 26626, 2-cyano-3-(1,4-dihydro-5-morpholinomethyl-1-phenyl-indeno[1,2-c]pyrazol-3-yl)-3-oxo-N-phenyl-propanamide], the figures for the inhibition in vivo at 10 mg/kg in data set [1] (setting [6]), in data set [1] (setting [7]) and in data set [1] (setting [8]) were 57%, 47% and 54%, respectively. Further, in data set [1] (Table 2, day 18), the “Oedema volume ± S.E., day 18” value is 425 ± 173 mm^3. In data set [1] (Table 2, day 21), the “Oedema volume ± S.E., day 21” value amounted to 587 ± 222 mm^3. The “Oedema volume ± S.E., day 25” value in data set [1] (Table 2, day 25) was determined as 562 ± 234 mm^3.

For `CC(C)(C)OC(=O)c1cccc2c1SCc1c(C(=O)C(C#N)C(=O)Nc3ccccc3)nn(-c3ccccc3)c1-2` (centres unmarked) [FCE 26674, 3-(6-tert-butoxycarbonyl-1,4-dihydro-1-phenyl-[1]-benzothiopyrano[4,3-c]pyrazol-3-yl)-2-cyano-3-oxo-N-phenyl-propanamide], the results for the inhibition in vivo at 10 mg/kg in data set [1] (setting [6]), in data set [1] (setting [7]) and in data set [1] (setting [8]) were 24%, 40% and 34%, respectively. In addition, in data set [1] (Table 2, day 18), the “Oedema volume ± S.E., day 18” value turned out to be 757 ± 209 mm^3. Besides, the “Oedema volume ± S.E., day 21” value in data set [1] (Table 2, day 21) is 662 ± 182 mm^3. In data set [1] (Table 2, day 25), the “Oedema volume ± S.E., day 25” value was found to be 812 ± 226 mm^3.

With `N#CC(C(=O)Nc1ccccc1)C(=O)c1nn(-c2ccccc2)c2c1Cc1ccc(F)cc1-2` (centres unmarked) [FCE 26676, 2-cyano-3-(7-fluoro-1,4-dihydro-1-phenyl-indeno[1,2-c]pyrazol-3-yl)-3-oxo-N-phenyl-propanamide], the inhibition in vivo at 10 mg/kg turned out to be 65% in data set [1] (setting [6]), 54% in data set [1] (setting [7]) and 50% in data set [1] (setting [8]). Moreover, the “Oedema volume ± S.E., day 18” value in data set [1] (Table 2, day 18) was determined as 350 ± 127 mm^3. Also, in data set [1] (Table 2, day 21), the “Oedema volume ± S.E., day 21” value stood at 512 ± 203 mm^3. Moreover, the “Oedema volume ± S.E., day 25” value in data set [1] (Table 2, day 25) was 612 ± 225 mm^3.
